Measured values reported in US20250154198A1, “PEPTIDE INHIBITORS OF INTERLEUKIN-23 RECEPTOR” (Zealand Pharma A/S, priority 2021, published 2025).
Where two headings read alike, the source gives them in different places. *1 amine or outer side, *2 acyl side, *3 side chain or, on linkers, in order; H or OH if unused. Where a SMILES comes first, the peptide text is derived from it. Bridges are numbered along the chain shown (N, C = ends). [ ]: non-standard residue; d: D form. Phe(4-NH2) = Nc1ccc(C[C@H](N)C(=O)O)cc1; 2Nal = N[C@@H](Cc1ccc2ccccc2c1)C(=O)O; AEF = NCCOc1ccc(C[C@H](N)C(=O)O)cc1; αMeL = CC(C)C[C@](C)(N)C(=O)O; CH2COCH2 = O=C(C[*:1])C[*:2]; 3Amb = NCc1cccc(C(=O)O)c1

Assays:
human IL-23R = target: T1, human IL-23R (Homo sapiens, UniProt Q5VWK5); experiment: Binding assay (NanoBRET displacement of fluorophore-labelled reference compound) for estimating binding affinity to human IL-23R; settings: for IL-23R inhibitory activity (in words): with reference to Ki and IC50 data of the Examples
T1 construct: UniProtKB—Q5VWK5, amino acids 22-629; secretion signal of the plasmid (Promega N1371); expressed in transfected cells
T1 sequence (Q5VWK5 22-629): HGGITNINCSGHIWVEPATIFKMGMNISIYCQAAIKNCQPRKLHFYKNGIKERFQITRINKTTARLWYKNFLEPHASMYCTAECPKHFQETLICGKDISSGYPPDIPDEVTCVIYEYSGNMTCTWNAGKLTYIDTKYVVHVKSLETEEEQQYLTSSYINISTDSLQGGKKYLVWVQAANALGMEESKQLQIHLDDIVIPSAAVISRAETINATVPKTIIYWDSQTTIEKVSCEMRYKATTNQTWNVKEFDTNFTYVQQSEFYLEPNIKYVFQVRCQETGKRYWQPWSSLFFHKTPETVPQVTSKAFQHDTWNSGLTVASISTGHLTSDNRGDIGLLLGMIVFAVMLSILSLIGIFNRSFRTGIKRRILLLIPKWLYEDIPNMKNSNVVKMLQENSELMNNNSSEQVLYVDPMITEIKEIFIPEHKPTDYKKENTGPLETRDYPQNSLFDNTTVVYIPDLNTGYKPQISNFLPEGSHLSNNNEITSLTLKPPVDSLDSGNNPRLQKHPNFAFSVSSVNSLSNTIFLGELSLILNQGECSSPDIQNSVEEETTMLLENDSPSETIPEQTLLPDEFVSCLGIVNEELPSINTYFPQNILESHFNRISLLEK

[1] = target: IL-23 mediated phospho-STAT3 formation in DB cells (Homo sapiens, UniProt Q5VWK5); experiment: Functional inhibition of IL-23 mediated STAT3 signalling (phospho-STAT3 Tyr705 MSD) in DB cells; type: cell-based; settings: Table 3-1; DB cells; read-out: IC50 (pSTAT3)
Procedure, shortened: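 DB cells preincubated 15 min with compound at 37° C, then stimulated 90 min with hIL-23 at EC80. Lysate phospho-STAT3 measured by MSD, normalized to IL-23-alone and buffer wells; IC50 and maximal % inhibition from 4PL fit.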

[2] = Peptide stability in simulated intestinal fluid (SIF); type: in vitro ADME; settings: pig, Table 3-2, porcine pancreatin, pH 6.8, 37° C., 10 μM; for remaining at 1 h, 10 μM: read-out: SIF (% remaining 1 h); for remaining at 4 h, 10 μM: read-out: SIF (% remaining 4 h)
Procedure, shortened: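 Peptides incubated at 37°C with gentle shaking in SGF (NaCl, HCl, pH 1.2) or SIF (phosphate pH 6.8 with 10 g/L porcine pancreatin). Samples analysed by LC-HRMS; percent remaining at each timepoint calculated from absolute peak areas relative to time zero.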

[3] = Peptide stability in simulated gastric fluid (SGF); type: in vitro ADME; settings: pig, Table 3-3, porcine pepsin, pH 1.2, 37° C., 10 μM; for remaining at 1 h, 10 μM: read-out: SGF (% remaining 1 h); for remaining at 4 h, 10 μM: read-out: SGF (% remaining 4 h)
Experimental: Determination of Peptide Stability in Simulated Gastric Fluid (SGF) and Simulated Intestinal Fluid (SIF)
SGF was prepared by dissolving sodium chloride (0.2 g) in 50 mL of water. A volume of 0.7 mL of 10 M HCl was added to adjust the pH of the solution to 1.2 and the volume made up to 100 mL with water. […] SIF was prepared by dissolving monobasic potassium phosphate (0.68 g) in 50 mL of water and adjusting the pH to 6.8 with 1 M NaOH. The volume was subsequently made up to 100 mL with water. 200 mg porcine pancreatin (P1625, Sigma Aldrich) was gently dissolved into 20 mL preheated (37° C.) solution (10 g/L) immediately prior to the incubation.
The incubation was performed at 37° C. with gentle shaking. […] After the last timepoint, the sampling plate was mixed for 10 min on a shaking table and centrifuged 10 min at 2200 g. 70 μL resulting supernatant was diluted with 150 μL water, mixed and centrifugated before analysis by liquid chromatography high resolution mass spectrometry. […] Percent remaining at each timepoint was calculated relative to timepoint zero based on absolute peak areas.

[4] = Table 3-1, read-out: Ki hIL-23R
[5] = simulated intestinal fluid (SIF) with porcine pancreatin
[6] = simulated gastric fluid (SGF) with porcine pepsin

Compound	Ki (human IL-23R; [4]) [µM]	IL-23R inhibitory activity (in words) (human IL-23R)	IC50 [1] [µM]	remaining at 1 h, 10 μM [2, 5] [%]	remaining at 4 h, 10 μM [2, 5] [%]	remaining at 1 h, 10 μM [3, 6] [%]	remaining at 4 h, 10 μM [3, 6] [%]	Ki (human IL-23R) [µM]	remaining at 1 h, 10 μM [2] [%]	remaining at 4 h, 10 μM [2] [%]	remaining at 1 h, 10 μM [3] [%]	remaining at 4 h, 10 μM [3] [%]
CC(C)C[C@]1(C)NC(=O)[C@H](Cc2ccc3ccccc3c2)NC(=O)[C@H](Cc2ccc(OCCN)cc2)NC(=O)[C@@H]2CSCC(=O)CSC[C@H](NC(=O)[C@H](CO)NC(=O)c3cccc(c3)CNC(=O)CC[C@@H](C(=O)N[C@@H](CCCNC(=N)N)C(N)=O)NC1=O)C(=O)N[C@@H](Cc1c[nH]c3ccccc13)C(=O)N[C@@H](CCC(N)=O)C(=O)N2 [Compound 38, [(3-Aminomethyl)benzoyl](1c)*SC(2a)WQC(2a)[Y(2-aminoethoxy)][2-Nal][2-Me-Leu]E(1c)R-[NH2]] ([3Amb]SCWQC[AEF][2Nal][αMeL]ER-NH2; linker 3-6 via CH2COCH2; lactam N-10)	0.00256			29	5		84					
CC(C)C[C@]1(C)NC(=O)[C@H](Cc2ccc3ccccc3c2)NC(=O)[C@H](Cc2ccc(OCCN)cc2)NC(=O)[C@@H]2CSCC(=O)CSC[C@H](NC(=O)[C@H](CO)NC(=O)c3cccc(c3)CNC(=O)CC[C@@H](C(=O)N[C@@H](Cc3ccc(N)cc3)C(N)=O)NC1=O)C(=O)N[C@@H](Cc1c[nH]c3ccccc13)C(=O)N[C@@H](CCC(N)=O)C(=O)N2 [Compound 45, [(3-Aminomethyl)benzoyl](1c)*SC(2a)WQC(2a)[Y(2-aminoethoxy)][2-Nal][2-Me-Leu]E(1c)[F(4-NH2)]-[NH2]] ([3Amb]SCWQC[AEF][2Nal][αMeL]E[Phe(4-NH2)]-NH2; linker 3-6 via CH2COCH2; lactam N-10)	0.012				34	76	84					
CC(C)C[C@@H]1NC(=O)[C@H](Cc2ccc3ccccc3c2)NC(=O)[C@H](Cc2ccc(OCCN)cc2)NC(=O)[C@@H]2CSCC(=O)CSC[C@H](NC(=O)[C@H](CO)NC(=O)c3cccc(c3)CNC(=O)CC[C@@H](C(=O)N[C@@H](CCCNC(=N)N)C(N)=O)NC1=O)C(=O)N[C@@H](Cc1c[nH]c3ccccc13)C(=O)N[C@@H](CCC(N)=O)C(=O)N2 [Compound 39, [(3-Aminomethyl)benzoyl](1c)*SC(2a)WQC(2a)[Y(2-aminoethoxy)][2-Nal]LE(1c)R-[NH2]] ([3Amb]SCWQC[AEF][2Nal]LER-NH2; linker 3-6 via CH2COCH2; lactam N-10)	0.0014			0	0	90						
CC(C)C[C@@H]1NC(=O)[C@H](Cc2c[nH]c3ccccc23)NC(=O)[C@H](Cc2c[nH]c3ccccc23)NC(=O)[C@@H]2CSCC(=O)CSC[C@H](NC(=O)[C@H](CO)NC(=O)[C@@H](NC(=O)[C@@H](N)CC(C)C)CSCC(=O)CSC[C@@H](C(=O)N[C@@H](CCCNC(=N)N)C(N)=O)NC1=O)C(=O)N[C@@H](Cc1c[nH]c3ccccc13)C(=O)N[C@@H](CCC(N)=O)C(=O)N2 [Compound 2, H-LC(1a)SC(2a)WQC(2a)WWLC(1a)R-[NH2]] (HELM PEPTIDE1{L.C.S.C.W.Q.C.W.W.L.C.R.[am]}|CHEM1{[O=C(C[*:1])C[*:2]]}|CHEM2{[O=C(C[*:1])C[*:2]]}$PEPTIDE1,CHEM1,2:R3-1:R1|PEPTIDE1,CHEM1,11:R3-1:R2|PEPTIDE1,CHEM2,4:R3-1:R1|PEPTIDE1,CHEM2,7:R3-1:R2$$$V2.0)								0.0323	0	0	6	1

Further lines, with some results ahead:

Ki (human IL-23R; [4]) [µM]	IL-23R inhibitory activity (in words) (human IL-23R)	IC50 [1] [µM]	remaining at 1 h, 10 μM [2, 5] [%]	remaining at 4 h, 10 μM [2, 5] [%]	remaining at 1 h, 10 μM [3, 6] [%]	remaining at 4 h, 10 μM [3, 6] [%]	Compound	Ki (human IL-23R) [µM]	remaining at 1 h, 10 μM [2] [%]	remaining at 4 h, 10 μM [2] [%]	remaining at 1 h, 10 μM [3] [%]	remaining at 4 h, 10 μM [3] [%]
> 1	inactive	> 1	0	0	0	0	CC(=O)N[C@@H](CC(=O)O)C(=O)N[C@H]1CCC(=O)NCCCC[C@@H](C(=O)N[C@@H](CCCNC(=N)N)C(N)=O)NC(=O)[C@H](CC(C)C)NC(=O)[C@H](Cc2c[nH]c3ccccc23)NC(=O)[C@H](Cc2c[nH]c3ccccc23)NC(=O)[C@@H]2CSCC(=O)CSC[C@H](NC(=O)[C@H](CO)NC1=O)C(=O)N[C@@H](Cc1c[nH]c3ccccc13)C(=O)N2 [Ref 6, [Ac]-DE(1c)SC(2a)WC(2a)WWLK(1c)R-[NH2], reference compound] (HELM PEPTIDE1{[ac].D.E.S.C.W.C.W.W.L.K.R.[am]}|CHEM1{[O=C(C[*:1])C[*:2]]}$PEPTIDE1,PEPTIDE1,3:R3-11:R3|PEPTIDE1,CHEM1,5:R3-1:R1|PEPTIDE1,CHEM1,7:R3-1:R2$$$V2.0)					
0.0482			9	0	83	66	CC(C)C[C@H]1NC(=O)[C@H](Cc2ccc3ccccc3c2)NC(=O)[C@H](Cc2ccc(OCCN)cc2)NC(=O)[C@@H]2CSCC(=O)CSC[C@H](NC(=O)[C@H](CO)NC(=O)c3cccc(c3)CNC(=O)CC[C@@H](C(=O)N[C@@H](Cc3ccc(O)cc3)C(N)=O)NC1=O)C(=O)N[C@@H](Cc1c[nH]c3ccccc13)C(=O)N[C@@H](CCC(N)=O)C(=O)N2 [Compound 46, [(3-Aminomethyl)benzoyl](1c)*SC(2a)WQC(2a)[Y(2-aminoethoxy)][2-Nal][{d}L]E(1c)Y-[NH2]] ([3Amb]SCWQC[AEF][2Nal][dL]EY-NH2; linker 3-6 via CH2COCH2; lactam N-10)					
> 1	inactive	> 1	0	0	1	0	CC(=O)N[C@@H](CC(=O)O)C(=O)N[C@H]1CCC(=O)NCCCC[C@@H](C(=O)N[C@@H](CCCNC(=N)N)C(N)=O)NC(=O)[C@H](CC(C)C)NC(=O)[C@H](Cc2c[nH]c3ccccc23)NC(=O)[C@H](Cc2c[nH]c3ccccc23)NC(=O)[C@@H]2CSCC(=O)CSC[C@H](NC1=O)C(=O)N[C@@H](Cc1c[nH]c3ccccc13)C(=O)N[C@@H](CCC(N)=O)C(=O)N2 [Ref 5, [Ac]-DE(1c)C(2a)WQC(2a)WWLK(1c)R-[NH2], reference compound] (HELM PEPTIDE1{[ac].D.E.C.W.Q.C.W.W.L.K.R.[am]}|CHEM1{[O=C(C[*:1])C[*:2]]}$PEPTIDE1,PEPTIDE1,3:R3-11:R3|PEPTIDE1,CHEM1,4:R3-1:R1|PEPTIDE1,CHEM1,7:R3-1:R2$$$V2.0)					
